One data set deals with S. aureus ATCC 6538P. Briefly: Antibacterial activity: MIC/MBC determination and disc-diffusion. The data set is classed as cell-based, Staphylococcus aureus. The following applies: S. aureus ATCC 6538P; for diameter of inhibition zone: disc-diffusion, — = zone not observed; for MIC / MBC: Staphylococcus aureus, ATCC6538P; for MIC: read-out: MIC; for MBC: read-out: MBC (first MBC where Eagle effect). On the procedure:
(§1) Direct antimicrobial activity was determined against the following standard strains: (1) Gram-positive cocci: methicillin-sensitive Staphylococcus aureus ATCC 6538P (MSSA), methicillin-resistant S. aureus subsp. aureus ATCC 43300 (MRSA), S. epidermidis ATCC 12228, Enterococcus faecium ATCC 6057, E. faecalis ATCC 29212, Bacillus subtilis ATCC 6633; (2) Gram-negative bacteria from Enterobacteriales order: Klebsiella pneumoniae ATCC 13883, Escherichia coli ATCC 25922, Enterobacter cloacae DSM 6234, Proteus mirabilis ATCC 12453, Serratia marcescens ATCC 13880; (3) Gram-negative non-fermentative rods: Acinetobacter baumannii ATCC 19606, Pseudomonas aeruginosa ATCC 27853, Stenotrophomonas maltophilia ATCC 12714, S. maltophilia ATCC 13637, Burkholderia cepacia ATCC 25416, Bordetella bronchiseptica ATCC 4617; (4) yeasts: Candida albicans ATCC 90028, C. krusei ATCC 6258, C. parapsilosis ATCC 22019, C. tropicalis (Castellani) Berkhout ATCC 750, C. tropicalis IBA 171, C. guilliermondii IBA 155, and Saccharomyces cerevisiae ATCC 9763. Moreover, 5 clinical strains of methicillin-resistant S. aureus were also included: NMI 664 K, NMI 1576 K, NMI 1712 K, NMI 1991 K, and NMI 2541 K. All strains were stored at −80 °C. Prior to testing, each bacterial strain was subcultured twice on tryptic soy agar TSA (bioMerieux) medium and yeast strains on Sabouraud dextrose agar (bioMerieux) for 24–48 h at 30 °C to ensure viability. The antimicrobial activity was evaluated as previously described[26] by the disc-diffusion method and the MIC determination assays according to the EUCAST (ref. [71] and [72]) and CLSI (ref. [53] and [73]) recommendations. Assessment of bactericidal (MBC) and fungicidal (MFC) activities was performed according to the CLSI recommendations.[54,74] The following reference agents were used: fluconazole (in the case of fungi), linezolid (for Gram-positive bacteria), and nitrofurantoin (for Gram-negative rods). The new benzosiloxaboroles were dissolved in DMSO (Sigma).

The test system of a further data set is K. pneumoniae ATCC 13883. Briefly: Antibacterial activity: MIC/MBC, MIC with PAβN, disc-diffusion. Conditions: Klebsiella pneumoniae, ATCC13883; K. pneumoniae ATCC 13883; read-out: MIC. The data set is classed as cell-based, Klebsiella pneumoniae. On the procedure:
as §1, with “The following reference agents were used: fluconazole (in the case of fungi), linezolid (for Gram-positive bacteria), and nitrofurantoin (for Gram-negative rods).” left out
Considering that the MDR efflux pumps often contribute to Gram-negative rod resistance, the MIC values of studied agents, with or without the pump inhibitor, PAβN (20 μg mL^−1) (Sigma), were determined.[75] The MIC was determined using Mueller–Hinton II broth medium (MHB) (Becton Dickinson) by the broth microdilution method, according to the CLSI guideliness.[53] To minimize the influence of PAβN on the destabilization of bacterial cell covers, the tests were conducted in the presence of 1 mM MgSO4 (Sigma).[76] At least a 4-fold reduction in the MIC value after the addition of PAβN was considered significant.[56,77]
(A growth-free zone around the sample is the usual read-out of agar diffusion tests.)

Data set [1] has as its system Human normal lung fibroblasts MRC-5. Put plainly: MTT-based viability (cytotoxicity) assay. The following applies: for IC50: Homo sapiens, MRC5, 48 h. As to the method: To evaluate the cytotoxic effect of the tested compounds, an MTT-based assay was performed. […] Moreover, based on available IC50 and MIC (for standard and clinical S. aureus MRSA strains) values, the selectivity index (SI) was calculated for several compounds as the IC50/MIC ratio (Table 5).[60]
MRC-5 pd30 human fibroblasts (ECACC) were cultured in MEME, Minimum Essential Medium Eagle (Merck), supplemented with 10% fetal bovine serum (Merck), 2 mM L-glutamine, antibiotics (100 U mL^−1 penicillin, 100 μg mL^−1 streptomycin, Merck) and 1% non-essential amino acids (Merck). Cells were grown in 75 cm^2 cell culture flasks (Sarstedt), in a humidified atmosphere of CO2/air (5/95%) at 37 °C. MTT-based viability assay was conducted as described previously.[26] Optical densities were measured at 570 nm using a BioTek microplate reader. All measurements were carried out in three replicates and the results expressed as a percent of viable cells versus control cells. […] The selectivity index (SI) was calculated as [drawing 30] , in accordance with previously described protocols.[60]

Values after ≈ are worked out from the molar mass of the structure shown.

One may read the MIC as the lowest concentration that inhibits growth of the organism. In general, IC50 refers to the concentration needed to halve the response being measured. With `C[Si]1(C)OB(O)c2cc(F)c(SC3CC(=O)N(c4ccc(F)cc4)C3=O)c(F)c21` (stereo not shown) [Compound 14, 3-((5,7-Difluoro-3-hydroxy-1,1-dimethyl-1,3-dihydrobenzo[c][1,2,5]oxasilaborol-6-yl)thio)-1-(4-fluorophenyl)pyrrolidine-2,5-dione], in the data set on S. aureus ATCC 6538P, the “diameter of inhibition zone” value came out at 22 mm. Moreover, the MIC in the data set on S. aureus ATCC 6538P was 50 µg/mL (≈ 114 µM); in the data set with K. pneumoniae ATCC 13883, above 200 µg/mL. For the same compound, the “viability of MRC-5” value in data set [1] (6.25 µg·mL−1, 48 h) is on record as 90.4±7.6 % of control ± SD; in data set [1] (12.5 µg·mL−1, 48 h) it was 88.8±5.4 % of control ± SD; in data set [1] (25 µg·mL−1, 48 h), 87.5±3.5 % of control ± SD; in data set [1] (50 µg·mL−1, 48 h), 80.3±7.5 % of control ± SD; in data set [1] (100 µg·mL−1, 48 h), 52.0±2.8 % of control ± SD; in data set [1] (200 µg·mL−1, 48 h) it was 27.3±3.2 % of control ± SD. Besides, the “viability of MRC-5” value in data set [1] (400 µg·mL−1, 48 h) is 0.1±0.1 % of control ± SD. The same compound had an IC50 in data set [1] of 133 µg/mL (≈ 305 µM).
Consider `C[Si]1(C)OB(O)c2ccc(SC3CC(=O)N(c4ccc(F)cc4)C3=O)c(F)c21` (stereo not shown) [Compound 15, 3-((7-Fluoro-3-hydroxy-1,1-dimethyl-1,3-dihydrobenzo[c][1,2,5]oxasilaborol-6-yl)thio)-1-(4-fluorophenyl)pyrrolidine-2,5-dione], for which the “diameter of inhibition zone” value with S. aureus ATCC 6538P worked out at 23 mm. The MIC was 25 µg/mL (≈ 59.6 µM) in the data set with S. aureus ATCC 6538P and above 200 µg/mL in the data set with K. pneumoniae ATCC 13883. In addition, the “viability of MRC-5” value was 89.2±0.3 % of control ± SD in data set [1] (6.25 µg·mL−1, 48 h); 77.9±4.3 % of control ± SD in data set [1] (12.5 µg·mL−1, 48 h); 73.7±0.8 % of control ± SD in data set [1] (25 µg·mL−1, 48 h); 69.9±1.8 % of control ± SD in data set [1] (50 µg·mL−1, 48 h); 65.0±0.1 % of control ± SD in data set [1] (100 µg·mL−1, 48 h); 41.5±0.7 % of control ± SD in data set [1] (200 µg·mL−1, 48 h). Also, in data set [1] (400 µg·mL−1, 48 h), the “viability of MRC-5” value was 6.7±0.1 % of control ± SD. In addition, the concentration for half-maximal inhibition (IC50) in data set [1] worked out at 145 µg/mL (≈ 346 µM).
Broadly, the MBC is the smallest concentration meeting the test's criterion for killing. With `C[Si]1(C)OB(O)c2cc(F)c(SC3CC(=O)N(c4ccc(Br)c(C(F)(F)F)c4)C3=O)c(F)c21` (stereo not shown) [Compound 16, 1-(4-Bromo-3-(trifluoromethyl)phenyl)-3-((5,7-difluoro-3-hydroxy-1,1-dimethyl-1,3-dihydrobenzo[c][1,2,5]oxasilaborol-6-yl)thio)pyrrolidine-2,5-dione], the “diameter of inhibition zone” value in the data set with S. aureus ATCC 6538P was 20 mm. Also, the minimal bactericidal concentration (MBC) with S. aureus ATCC 6538P came out at 100 µg/mL (≈ 177 µM). In addition, the minimal inhibitory concentration (MIC) with S. aureus ATCC 6538P was 50 µg/mL (≈ 88.3 µM); with K. pneumoniae ATCC 13883, above 200 µg/mL. Also, the “viability of MRC-5” value in data set [1] (6.25 µg·mL−1, 48 h) is 97.0±0.2 % of control ± SD; in data set [1] (12.5 µg·mL−1, 48 h) it was 84.8±2.7 % of control ± SD; in data set [1] (25 µg·mL−1, 48 h), 78.5±1.6 % of control ± SD; in data set [1] (50 µg·mL−1, 48 h) it was 62.7±2.5 % of control ± SD; in data set [1] (100 µg·mL−1, 48 h) it was 46.0±1.4 % of control ± SD; in data set [1] (200 µg·mL−1, 48 h), 0.4±0.2 % of control ± SD. For the same compound, in data set [1] (400 µg·mL−1, 48 h), the “viability of MRC-5” value is recorded as 0.1±0.0 % of control ± SD. Moreover, half-maximal inhibition in data set [1] (IC50) was put at 76.2 µg/mL (≈ 135 µM).
On to `C[Si]1(C)OB(O)c2ccc(SC3CC(=O)N(c4ccc(Br)c(C(F)(F)F)c4)C3=O)c(F)c21` (stereo not shown) [Compound 17, 1-(4-Bromo-3-(trifluoromethyl)phenyl)-3-((7-fluoro-3-hydroxy-1,1-dimethyl-1,3-dihydrobenzo[c][1,2,5]oxasilaborol-6-yl)thio)pyrrolidine-2,5-dione], for which the “diameter of inhibition zone” value with S. aureus ATCC 6538P is on record as 19 mm. In addition, in the data set on S. aureus ATCC 6538P, the MBC was 100 µg/mL (≈ 182 µM). Further, the figures for the MIC with S. aureus ATCC 6538P and with K. pneumoniae ATCC 13883 were 25 µg/mL (≈ 45.6 µM) and above 200 µg/mL, respectively. In addition, the “viability of MRC-5” value in data set [1] (6.25 µg·mL−1, 48 h) is 99.9±4.6 % of control ± SD; in data set [1] (12.5 µg·mL−1, 48 h), 96.1±2.3 % of control ± SD; in data set [1] (25 µg·mL−1, 48 h), 87.6±0.2 % of control ± SD; in data set [1] (50 µg·mL−1, 48 h), 89.2±8.5 % of control ± SD; in data set [1] (100 µg·mL−1, 48 h), 71.2±1.3 % of control ± SD; in data set [1] (200 µg·mL−1, 48 h) it was 29.5±0.3 % of control ± SD. In data set [1] (400 µg·mL−1, 48 h), the “viability of MRC-5” value is recorded as 0.0±0.0 % of control ± SD. The same compound gave a 50% inhibitory concentration (IC50) in data set [1] of 140 µg/mL (≈ 254 µM).
As to `C[Si]1(C)OB(O)c2cc(F)c(S(N)(=O)=O)c(F)c21` [Compound 27, 5,7-Difluoro-3-hydroxy-1,1-dimethyl-1,3-dihydrobenzo[c][1,2,5]oxasilaborole-6-sulfonamide], the minimum inhibitory concentration (MIC) with S. aureus ATCC 6538P is 400 µg/mL (≈ 1360 µM); in the data set with K. pneumoniae ATCC 13883, above 400 µg/mL. For the same compound, the “viability of MRC-5” value in data set [1] (6.25 µg·mL−1, 48 h) is recorded as 74.1±3.1 % of control ± SD; in data set [1] (12.5 µg·mL−1, 48 h), 74.1±1.4 % of control ± SD; in data set [1] (25 µg·mL−1, 48 h), 79.3±9.5 % of control ± SD; in data set [1] (50 µg·mL−1, 48 h) it was 79.7±7.5 % of control ± SD; in data set [1] (100 µg·mL−1, 48 h) it was 74.3±7.9 % of control ± SD; in data set [1] (200 µg·mL−1, 48 h), 68.5±3.4 % of control ± SD. Moreover, the “viability of MRC-5” value in data set [1] (400 µg·mL−1, 48 h) is listed as 66.2±2.4 % of control ± SD. Besides, in data set [1], the IC50 is above 400 µg/mL.
For `C[Si]1(C)OB(O)c2cc(F)c(S(=O)(=O)Nc3ccc(F)cc3)c(F)c21` [Compound 28, 5,7-Difluoro-N-(4-fluorophenyl)-3-hydroxy-1,1-dimethyl-1,3-dihydrobenzo[c][1,2,5]oxasilaborole-6-sulfonamide], in the data set with S. aureus ATCC 6538P, the “diameter of inhibition zone” value stood at 22 mm. Besides, the values for the MIC in the data set with S. aureus ATCC 6538P and with K. pneumoniae ATCC 13883 were 50 µg/mL (≈ 129 µM) and above 400 µg/mL, respectively. Moreover, the “viability of MRC-5” value was 93.3±1.9 % of control ± SD in data set [1] (6.25 µg·mL−1, 48 h); 82.6±1.2 % of control ± SD in data set [1] (12.5 µg·mL−1, 48 h); 75.1±5.4 % of control ± SD in data set [1] (25 µg·mL−1, 48 h); 65.5±1.8 % of control ± SD in data set [1] (50 µg·mL−1, 48 h); 47.7±3.7 % of control ± SD in data set [1] (100 µg·mL−1, 48 h); 32.5±0.0 % of control ± SD in data set [1] (200 µg·mL−1, 48 h). In addition, the “viability of MRC-5” value in data set [1] (400 µg·mL−1, 48 h) was 15.6±0.1 % of control ± SD. In data set [1], this compound displayed an IC50 of 74.9 µg/mL (≈ 193 µM).

These data come from article PMC11110727, “Exploiting thiol-functionalized benzosiloxaboroles for achieving diverse substitution patterns – synthesis, characterization and biological evaluation of promising antibacterial agents” (RSC Medicinal Chemistry, 2024).
